# In patent US20140309210A1, “INDAZOLE COMPOUNDS, COMPOSITIONS AND METHODS OF USE THEREOF” (Genentech, Inc., priority 2011, published 2014):
# Biological target: T1, purified ITK (Invitrogen PV3875) (Homo sapiens, UniProt Q08881)
# T1 construct: purchased Invitrogen PV3875
# T1 sequence (Q08881 1-620): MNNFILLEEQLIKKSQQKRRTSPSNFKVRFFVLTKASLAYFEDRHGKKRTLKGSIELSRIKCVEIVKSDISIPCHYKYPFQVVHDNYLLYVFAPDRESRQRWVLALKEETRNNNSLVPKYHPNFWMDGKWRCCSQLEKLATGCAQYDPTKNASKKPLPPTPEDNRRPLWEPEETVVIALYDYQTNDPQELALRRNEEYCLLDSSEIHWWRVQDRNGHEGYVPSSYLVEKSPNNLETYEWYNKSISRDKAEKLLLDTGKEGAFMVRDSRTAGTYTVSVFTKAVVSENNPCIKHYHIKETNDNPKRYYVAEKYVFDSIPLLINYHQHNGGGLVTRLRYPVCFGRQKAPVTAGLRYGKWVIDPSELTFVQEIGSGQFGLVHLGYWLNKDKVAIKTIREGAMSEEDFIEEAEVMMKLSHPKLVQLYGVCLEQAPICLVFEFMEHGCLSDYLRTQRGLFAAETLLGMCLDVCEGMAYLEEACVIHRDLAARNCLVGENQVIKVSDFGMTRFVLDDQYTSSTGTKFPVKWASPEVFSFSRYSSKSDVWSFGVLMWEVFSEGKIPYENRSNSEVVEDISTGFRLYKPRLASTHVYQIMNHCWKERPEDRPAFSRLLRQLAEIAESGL
# Test: ITK peptide phosphorylation assay (Caliper LabChip or LCMS)
# Format: biochemical
# Conditions: Table 1, Examples 141-279
# How it was run: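 Purified human ITK peptide phosphorylation, quenched with EDTA (50 mM final) for Caliper LabChip separation or TCA (5% v/v final) for UPLC-MS/MS MRM quantification. Ki derived via Morrison tight-binding equation, corrected for competitive inhibition using ATP concentration relative to Km,app.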
row,Ki [nM],SMILES
1,2.8,"CN(CCO)c1nc(Cn2cc(NC(=O)c3n[nH]c4cc(-c5cn[nH]c5)ccc34)cn2)cs1 [Example 141, N-[1-[[2-[2-hydroxyethyl(meth-yl)amino]thiazol-4-yl]methyl]pyrazol-4-yl]-6-(1H-pyrazol-4-yl)-1H-indazole-3-carboxamide]"
2,32.4,"N#Cc1cccc(Cn2cc(NC(=O)c3n[nH]c4cc(-n5ccnc5)ccc34)cn2)c1 [Example 142, N-[1-[(3-cyanophenyl)meth-yl]pyrazol-4-yl]-6-imidazol-1-yl-1H-indazole-3-carboxamide]"
3,0.614,"O=C(Nc1cnn(Cc2cncc(Br)c2)c1)c1n[nH]c2cc(-c3cn[nH]c3)ccc12 [Example 143, N-[1-[(5-bromo-3-pyridyl)methyl]py-razol-4-yl]-6-(1H-pyrazol-4-yl)-1H-indazole-3-carboxamide]"
4,111,"N#Cc1cccc(Cn2cc(NC(=O)c3n[nH]c4cc(Br)c(F)cc34)cn2)c1 [Example 146, 6-bromo-N-[1-[(3-cyanophenyl)meth-yl]pyrazol-4-yl]-5-fluoro-1H-indazole-3-carboxamide]"
5,7.79,"N#Cc1cccc(Cn2cc(NC(=O)c3n[nH]c4cc(-c5cn[nH]c5)c(F)cc34)cn2)c1 [Example 147, N-[1-[(3-cyanophenyl)meth-yl]pyrazol-4-yl]-5-fluoro-6-(1H-pyrazol-4-yl)-1H-indazole-3-carboxamide]"
6,57.2,"Cc1cc2c(C(=O)Nc3cnn(Cc4cccc(C#N)c4)c3)n[nH]c2cc1-c1cncc(C#N)c1 [Example 148, N-[1-[(3-cyanophenyl)meth-yl]pyrazol-4-yl]-6-(5-cyano-3-pyridyl)-5-methyl-1H-indazole-3-carboxamide]"
7,71.1,"Cc1cc2c(C(=O)Nc3cnn(Cc4cccc(C#N)c4)c3)n[nH]c2cc1-c1cccnc1 [Example 149, N-[1-[(3-cyanophenyl)meth-yl]pyrazol-4-yl]-5-methyl-6-(3-pyridyl)-1H-indazole-3-carboxamide]"
8,20.1,"Cc1cc2c(C(=O)Nc3cnn(Cc4cccc(C#N)c4)c3)n[nH]c2cc1-c1ccc(N)nc1 [Example 150, 6-(6-amino-3-pyridyl)-N-[1-[(3-cyanophenyl)meth-yl]pyrazol-4-yl]-5-methyl-1H-indazole-3-carboxamide]"
9,16.4,"Cc1cc2c(C(=O)Nc3cnn(Cc4cccc(C#N)c4)c3)n[nH]c2cc1-c1cn[nH]c1 [Example 151, N-[1-[(3-cyanophenyl)meth-yl]pyrazol-4-yl]-5-methyl-6-(1H-pyrazol-4-yl)-1H-indazole-3-carboxamide]"
10,12.8,"N#Cc1cccc(Cn2cc(NC(=O)c3n[nH]c4cc(-c5ccc(N)nc5)c(F)cc34)cn2)c1 [Example 152, 6-(6-amino-3-pyridyl)-N-[1-[(3-cyanophenyl)meth-yl]pyrazol-4-yl]-5-fluoro-1H-indazole-3-carboxamide]"

# Same assay, conditions: Table 2, Examples 1-140, class symbols
row,SMILES,Ki [nM]
1,"CN(C)CCNCc1ccc(Cn2cc(NC(=O)c3n[nH]c4ccccc34)cn2)cc1 [Example 104, N-(1-(4-((2-(dimethylamino)ethylamino)methyl)benzyl)-1H-pyrazol-4-yl)-1H-indazole-3-carboxamide]",1 to 100
2,"O=C(Nc1cnn(Cc2ccc(CNC3CCC3)cc2)c1)c1n[nH]c2ccccc12 [Example 107, N-(1-(4-((cyclobutylamino)methyl)benzyl)-1H-pyrazol-4-yl)-1H-indazole-3-carboxamide]",1 to 100
3,"O=C(Nc1cnn(Cc2ccc(CNCC3CC3)cc2)c1)c1n[nH]c2ccccc12 [Example 108, N-(1-(4-((cyclopropylmethylamino)methyl)benzyl)-1H-pyrazol-4-yl)-1H-indazole-3-carboxamide]",1 to 100
4,"O=C(Nc1cnn(Cc2ccc(CN3CCC(O)C3)cc2)c1)c1n[nH]c2ccccc12 (stereo not drawn) [Example 114, N-(1-(4-((3-hydroxypyrrolidin-1-yl)methyl)benzyl)-1H-pyrazol-4-yl)-1H-indazole-3-carboxamide]",1 to 100
5,"COc1ccc(-c2ccc3c(C(=O)Nc4cnn(Cc5cccc(C#N)c5)c4)n[nH]c3c2)cn1 [Example 117, N-(1-(3-cyanobenzyl)-1H-pyrazol-4-yl)-6-(6-methoxypyridin-3-yl)-1H-indazole-3-carboxamide]",1 to 100
6,"Cc1ncccc1-c1ccc2c(C(=O)Nc3cnn(Cc4cccc(C#N)c4)c3)n[nH]c2c1 [Example 118, N-(1-(3-cyanobenzyl)-1H-pyrazol-4-yl)-6-(2-methylpyridin-3-yl)-1H-indazole-3-carboxamide]",> 100
7,"Cc1ccc(-c2ccc3c(C(=O)Nc4cnn(Cc5cccc(C#N)c5)c4)n[nH]c3c2)cn1 [Example 120, N-(1-(3-cyanobenzyl)-1H-pyrazol-4-yl)-6-(6-methylpyridin-3-yl)-1H-indazole-3-carboxamide]",1 to 100
8,"Cn1cc(-c2ccc3c(C(=O)Nc4cnn(Cc5cccc(C#N)c5)c4)n[nH]c3c2)cn1 [Example 121, N-(1-(3-cyanobenzyl)-1H-pyrazol-4-yl)-6-(1-methyl-1H-pyrazol-4-yl)-1H-indazole-3-carboxamide]",1 to 100

# Further lines, results first:
row,Ki [nM],SMILES
1,1 to 100,"O=C(Nc1cnn(Cc2ccc(CNCC(F)F)cc2)c1)c1n[nH]c2ccccc12 [Example 105, N-(1-(4-((2,2-difluoroethylamino)methyl)benzyl)-1H-pyrazol-4-yl)-1H-indazole-3-carboxamide]"
2,1 to 100,"CC(O)CNCc1ccc(Cn2cc(NC(=O)c3n[nH]c4ccccc34)cn2)cc1 (stereo not drawn) [Example 106, N-(1-(4-((2-hydroxypropylamino)methyl)benzyl)-1H-pyrazol-4-yl)-1H-indazole-3-carboxamide]"
3,1 to 100,"CCCNCc1ccc(Cn2cc(NC(=O)c3n[nH]c4ccccc34)cn2)cc1 [Example 109, N-(1-(4-((propylamino)methyl)benzyl)-1H-pyrazol-4-yl)-1H-indazole-3-carboxamide]"
4,1 to 100,"CCNCc1ccc(Cn2cc(NC(=O)c3n[nH]c4ccccc34)cn2)cc1 [Example 110, N-(1-(4-((ethylamino)methyl)benzyl)-1H-pyrazol-4-yl)-1H-indazole-3-carboxamide]"
5,1 to 100,"CN(CCC#N)Cc1ccc(Cn2cc(NC(=O)c3n[nH]c4ccccc34)cn2)cc1 [Example 111, N-(1-(4-(((2-cyanoethyl)(methyl)amino)methyl)benzyl)-1H-pyrazol-4-yl)-1H-indazole-3-carboxamide]"
6,1 to 100,"CNCc1ccc(Cn2cc(NC(=O)c3n[nH]c4ccccc34)cn2)cc1 [Example 112, N-(1-(4-((methylamino)methyl)benzyl)-1H-pyrazol-4-yl)-1H-indazole-3-carboxamide]"
7,1 to 100,"CC(C)(O)CNCc1ccc(Cn2cc(NC(=O)c3n[nH]c4ccccc34)cn2)cc1 [Example 113, N-(1-(4-((2-hydroxy-2-methylpropylamino)methyl)benzyl)-1H-pyrazol-4-yl)-1H-indazole-3-carboxamide]"
8,1 to 100,"CN(C)Cc1ccc(Cn2cc(NC(=O)c3n[nH]c4ccccc34)cn2)cc1 [Example 115, N-(1-(4-((dimethylamino)methyl)benzyl)-1H-pyrazol-4-yl)-1H-indazole-3-carboxamide]"
9,1 to 100,"CC(c1ccccc1)n1cc(NC(=O)c2n[nH]c3ccccc23)cn1 (stereo not drawn) [Example 131, N-(1-(1-phenylethyl)-1H-pyrazol-4-yl)-1H-indazole-3-carboxamide]"
10,0.01 to 1,"CN(C)CC(c1ccccc1)n1cc(NC(=O)c2n[nH]c3cc(-c4cn[nH]c4)ccc23)cn1 (stereo not drawn) [Example 135, N-(1-(2-(dimethylamino)-1-phenylethyl)-1H-pyrazol-4-yl)-6-(1H-pyrazol-4-yl)-1H-indazole-3-carboxamide]"
11,1 to 100,"CC[C@@H](c1ccccc1)n1cc(NC(=O)c2n[nH]c3cc(-c4ccc(N)nc4)ccc23)cn1 [Example 136, (S)-6-(6-aminopyridin-3-yl)-N-(1-(1-phenylpropyl)-1H-pyrazol-4-yl)-1H-indazole-3-carboxamide]"
12,1 to 100,"CC[C@@H](c1ccccc1)n1cc(NC(=O)c2n[nH]c3cc(-c4cc[nH]n4)ccc23)cn1 [Example 137, (S)—N-(1-(1-phenylpropyl)-1H-pyrazol-4-yl)-6-(1H-pyrazol-3-yl)-1H-indazole-3-carboxamide]"
13,1 to 100,"CC[C@@H](c1ccccc1)n1cc(NC(=O)c2n[nH]c3cc(-c4cncnc4)ccc23)cn1 [Example 138, (S)—N-(1-(1-phenylpropyl)-1H-pyrazol-4-yl)-6-(pyrimidin-5-yl)-1H-indazole-3-carboxamide]"
14,1 to 100,"CC[C@@H](c1ccccc1)n1cc(NC(=O)c2n[nH]c3cc(-c4cccnc4)ccc23)cn1 [Example 139, (S)—N-(1-(1-phenylpropyl)-1H-pyrazol-4-yl)-6-(pyridin-3-yl)-1H-indazole-3-carboxamide]"
15,1 to 100,"CC[C@@H](c1ccccc1)n1cc(NC(=O)c2n[nH]c3cc(-c4ccncc4)ccc23)cn1 [Example 140, (S)—N-(1-(1-phenylpropyl)-1H-pyrazol-4-yl)-6-(pyridin-4-yl)-1H-indazole-3-carboxamide]"

# Same assay, conditions: Table 3, specific values for certain examples
row,Ki [nM],SMILES
1,110,"Cc1ncccc1-c1ccc2c(C(=O)Nc3cnn(Cc4cccc(C#N)c4)c3)n[nH]c2c1 [Example 118, N-(1-(3-cyanobenzyl)-1H-pyrazol-4-yl)-6-(2-methylpyridin-3-yl)-1H-indazole-3-carboxamide]"
2,9.9,"CC[C@@H](c1ccccc1)n1cc(NC(=O)c2n[nH]c3cc(-c4cc[nH]n4)ccc23)cn1 [Example 137, (S)—N-(1-(1-phenylpropyl)-1H-pyrazol-4-yl)-6-(1H-pyrazol-3-yl)-1H-indazole-3-carboxamide]"
3,5.6,"CC[C@@H](c1ccccc1)n1cc(NC(=O)c2n[nH]c3cc(-c4cncnc4)ccc23)cn1 [Example 138, (S)—N-(1-(1-phenylpropyl)-1H-pyrazol-4-yl)-6-(pyrimidin-5-yl)-1H-indazole-3-carboxamide]"
